Source: PMC6915728 (Nature Communications, 2019)
Read-outs that look alike come from different tables or passages of the source.

What was measured:
[1] = tested on: AMP-evolved E. coli lines; assay: Cross-resistance / collateral sensitivity: relative MIC change of 38 laboratory-evolved AMP-resistant lines vs parental strain; format: cell-based, Escherichia coli; settings: measured here
Source text: Here, we extended this dataset by measuring susceptibility changes of the same evolved lines to four additional AMPs using identical protocols to represent AMPs from all four clusters (Supplementary Fig. 15a, see also Methods). Overall, the resulting dataset of susceptibility profiles provides a comprehensive map of cross-resistance and collateral sensitivity between AMPs representing various modes of action.
To characterize the cross-resistance of the 38 E. coli lineages we obtained relative MIC changes that are, the MIC values of the evolved lines compared to these of the parental strain, from two data sources. First, we used already measured relative MIC changes from Spohn et al. Supplementary data 4[20]. […] Second, we extended this dataset by measuring the relative MIC changes of the same evolved lines to four additional AMPs using identical protocol. […] In this way, AMPs from each cluster were represented in the dataset.
Supplementary Figure 15. […] Relative change in MIC was determined for each evolved line by comparing its MIC to the ancestral cell line (control). […] CAP18-adaped lines were not included in the analysis because CAP18 is known as a membrane-targeting AMP in the literature. c, Cross-resistance interactions are enriched between membrane-targeting AMPs that are in the same chemical-genetic clusters (i.e. AMP pairs within C1 and within C2 clusters) (Significant difference: ** P = 0.0082 from two-sided Fisher’s exact test, n = 61 and 62 for within cluster and between clusters, respectively). […] Source data are provided as a Source Data file.

[2] = tested on: E. coli BW25113 overexpression strains (ASKA plasmids); assay: Minimum inhibitory concentration (MIC), serial broth dilution, single-gene overexpression strains vs empty-vector control; format: cell-based, Escherichia coli; settings: for Relative MIC: broth dilution, MS medium, 100 µM IPTG, 30 °C, 20-24 h, OD600, 3 replicates
In short: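 E. coli overexpression strains grown in MS medium with chloramphenicol, induced with 100 µM IPTG for 1 h at 30 °C, then about half-million cells inoculated into 12-step AMP dilutions (typically 1.2-fold steps). OD600 read after 20–24 h at 30 °C with shaking; triplicate strains compared with empty-vector control.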

[3] = tested on: bacterial species in which the gene showed activity; settings: cited from earlier work

TSSPPAAVVVRRRRRRRRRRRRRRRRRRR [PROA, Protamine, source herring, purchased from Sigma-Aldrich; cluster C3]
Relative change in MIC (MIC of the AMP-adpated line / MIC of the ancestral strain) ([1]; AMP-adapted line BAC5_3): 1.1
Relative change in MIC (MIC of the AMP-adpated line / MIC of the ancestral strain) ([1]; AMP-adapted line BAC5_5): 1.015
Relative change in MIC (MIC of the AMP-adpated line / MIC of the ancestral strain) ([1]; AMP-adapted line BAC5_7): 1.44
Relative change in MIC (MIC of the AMP-adpated line / MIC of the ancestral strain) ([1]; AMP-adapted line BAC5_10): 1.728
Relative change in MIC (MIC of the AMP-adpated line / MIC of the ancestral strain) ([1]; AMP-adapted line CAP18_2): 1.2
Relative change in MIC (MIC of the AMP-adpated line / MIC of the ancestral strain) ([1]; AMP-adapted line CAP18_5): 0.7622
Relative change in MIC (MIC of the AMP-adpated line / MIC of the ancestral strain) ([1]; AMP-adapted line CAP18_6): 0.7622
Relative change in MIC (MIC of the AMP-adpated line / MIC of the ancestral strain) ([1]; AMP-adapted line CAP18_8): 1.22
Relative change in MIC (MIC of the AMP-adpated line / MIC of the ancestral strain) ([1]; AMP-adapted line CAP18_10): 1.44
Relative change in MIC (MIC of the AMP-adpated line / MIC of the ancestral strain) ([1]; AMP-adapted line HBD3_3): 1.464
Relative change in MIC (MIC of the AMP-adpated line / MIC of the ancestral strain) ([1]; AMP-adapted line HBD3_6): 0.7639
Relative change in MIC (MIC of the AMP-adpated line / MIC of the ancestral strain) ([1]; AMP-adapted line HBD3_8): 1.22
Relative change in MIC (MIC of the AMP-adpated line / MIC of the ancestral strain) ([1]; AMP-adapted line HBD3_10): 1.584
Relative change in MIC (MIC of the AMP-adpated line / MIC of the ancestral strain) ([1]; AMP-adapted line LL37_1): 0.7044
Relative change in MIC (MIC of the AMP-adpated line / MIC of the ancestral strain) ([1]; AMP-adapted line LL37_3): 0.7622
Relative change in MIC (MIC of the AMP-adpated line / MIC of the ancestral strain) ([1]; AMP-adapted line LL37_6): 0.48
Relative change in MIC (MIC of the AMP-adpated line / MIC of the ancestral strain) ([1]; AMP-adapted line LL37_7): 1
Relative change in MIC (MIC of the AMP-adpated line / MIC of the ancestral strain) ([1]; AMP-adapted line LL37_10): 0.48
Relative change in MIC (MIC of the AMP-adpated line / MIC of the ancestral strain) ([1]; AMP-adapted line PEX_1): 1.2
Relative change in MIC (MIC of the AMP-adpated line / MIC of the ancestral strain) ([1]; AMP-adapted line PEX_4): 1.728
Relative change in MIC (MIC of the AMP-adpated line / MIC of the ancestral strain) ([1]; AMP-adapted line PEX_5): 0.915
Relative change in MIC (MIC of the AMP-adpated line / MIC of the ancestral strain) ([1]; AMP-adapted line PEX_6): 2.0736
Relative change in MIC (MIC of the AMP-adpated line / MIC of the ancestral strain) ([1]; AMP-adapted line PEX_7): 0.8472
Relative change in MIC (MIC of the AMP-adpated line / MIC of the ancestral strain) ([1]; AMP-adapted line PR39_1): 2.99
Relative change in MIC (MIC of the AMP-adpated line / MIC of the ancestral strain) ([1]; AMP-adapted line PR39_2): 1.2
Relative change in MIC (MIC of the AMP-adpated line / MIC of the ancestral strain) ([1]; AMP-adapted line PR39_5): 1.2
Relative change in MIC (MIC of the AMP-adpated line / MIC of the ancestral strain) ([1]; AMP-adapted line PR39_7): 1.73
Relative change in MIC (MIC of the AMP-adpated line / MIC of the ancestral strain) ([1]; AMP-adapted line PR39_10): 1.44
Relative change in MIC (MIC of the AMP-adpated line / MIC of the ancestral strain) ([1]; AMP-adapted line PXB_2): 1.7568
Relative change in MIC (MIC of the AMP-adpated line / MIC of the ancestral strain) ([1]; AMP-adapted line PXB_5): 0.8333
Relative change in MIC (MIC of the AMP-adpated line / MIC of the ancestral strain) ([1]; AMP-adapted line PXB_6): 1
Relative change in MIC (MIC of the AMP-adpated line / MIC of the ancestral strain) ([1]; AMP-adapted line PXB_8): 1
Relative change in MIC (MIC of the AMP-adpated line / MIC of the ancestral strain) ([1]; AMP-adapted line PXB_10): 1.44
Average relative change in MIC ([2]; mlaD overexpression strain relative to control (wild-type+empty vector), 3 replicates each, from optical density values of serial dilution plates, AMP in µg ml-1): 0.70
Relative MIC ([2]; overexpression strain cvpA, MIC of overexpression strain / MIC of empty-plasmid control): 0.78
Relative MIC ([2]; overexpression strain gadW, MIC of overexpression strain / MIC of empty-plasmid control): 0.78
Relative MIC ([2]; overexpression strain lptB, MIC of overexpression strain / MIC of empty-plasmid control): 0.51
Relative MIC ([2]; overexpression strain mlaD, MIC of the overexpression strain / MIC of the control strain (wild-type carrying the empty plasmid)): 0.72
Relative MIC ([2]; overexpression strain mzrA, MIC of overexpression strain / MIC of empty-plasmid control): 0.36
Relative MIC ([2]; overexpression strain nikB, MIC of overexpression strain / MIC of empty-plasmid control): <0.71
Relative MIC ([2]; overexpression strain ompT, MIC of overexpression strain / MIC of empty-plasmid control): >2.5
Relative MIC ([2]; overexpression strain ptsN, MIC of overexpression strain / MIC of empty-plasmid control): 1.47
Relative MIC ([2]; overexpression strain uhpC, MIC of overexpression strain / MIC of empty-plasmid control): <0.61
Relative MIC ([2]; overexpression strain yhbJ, MIC of overexpression strain / MIC of empty-plasmid control): 0.69
Relative MIC ([2]; overexpression strain ytjB, MIC of overexpression strain / MIC of empty-plasmid control): 0.8
Gene that modulates bacterial susceptibility to the AMP ([3]; Burkholderia cenocepacia, ref http://www.microbiologyresearch.org/docserver/fulltext/micro/155/9/2818.pdf?expires=1468919235&id=id&accname=guest&checksum=2CEA64BA8195145BE72C98BB20076627): zmpA
Gene that modulates bacterial susceptibility to the AMP ([3]; Burkholderia cenocepacia, ref http://www.microbiologyresearch.org/docserver/fulltext/micro/155/9/2818.pdf?expires=1468919235&id=id&accname=guest&checksum=2CEA64BA8195145BE72C98BB20076628): zmpB
Gene that modulates bacterial susceptibility to the AMP ([3]; Enterobacteriaceae, ref https://www.ncbi.nlm.nih.gov/pmc/articles/PMC3264287/, https://onlinelibrary.wiley.com/doi/full/10.1111/j.1348-0421.2010.00238.x, https://jb.asm.org/content/180/15/4002.full): ompT
Gene that modulates bacterial susceptibility to the AMP ([3]; Klebsiella pneumoniae, ref http://iai.asm.org/content/72/12/7107.full.pdf+html): cps
Gene that modulates bacterial susceptibility to the AMP ([3]; Proteus mirabilis, ref http://aac.asm.org/content/45/7/2030.long): sapD
Gene that modulates bacterial susceptibility to the AMP ([3]; Pseudomonas aeruginosa, Salmonella typhimurium, Escherichia coli, ref http://www.sciencemag.org/content/286/5444/1561.full.pdf, http://onlinelibrary.wiley.com/doi/10.1111/j.1365-2958.1995.tb02299.x/abstract, http://www.ncbi.nlm.nih.gov/pmc/articles/PMC50673/pdf/pnas01098-0300.pdf, https://jb.asm.org/content/jb/182/14/4077.full.pdf): phoP (PhoPQ)
Gene that modulates bacterial susceptibility to the AMP ([3]; Salmonella Typhimurium LT2, ref https://doi.org/10.1093/jac/dkq059): hemC (hem operon)
Gene that modulates bacterial susceptibility to the AMP ([3]; Salmonella enterica serovar Typhimurium, ref http://www.microbiologyresearch.org/docserver/fulltext/micro/154/2/666.pdf?expires=1487718158&id=id&accname=guest&checksum=D8B884D02A8B2A8619216A48E0826377): yejA
Gene that modulates bacterial susceptibility to the AMP ([3]; Salmonella enterica, Escherichia coli, ref http://www.ncbi.nlm.nih.gov/pmc/articles/PMC395316/pdf/emboj00065-0046.pdf http://www.ncbi.nlm.nih.gov/pmc/articles/PMC538956/pdf/1013-04.pd): sapA
Gene that modulates bacterial susceptibility to the AMP ([3]; Salmonella typhimurium, Escherichia coli, ref https://www.ncbi.nlm.nih.gov/pmc/articles/PMC3037666/, https://www.ncbi.nlm.nih.gov/pmc/articles/PMC3837802/pdf/zam7770.pdf): cpxA (CpxA/CpxR)
Gene that modulates bacterial susceptibility to the AMP ([3]; Salmonella typhimurium, Escherichia coli, ref https://www.ncbi.nlm.nih.gov/pmc/articles/PMC3037666/, https://www.ncbi.nlm.nih.gov/pmc/articles/PMC4808223/): amiA, amiC
Gene that modulates bacterial susceptibility to the AMP ([3]; Salmonella typhimurium, ref https://www.ncbi.nlm.nih.gov/pmc/articles/PMC3037666/): tatA
Gene that modulates bacterial susceptibility to the AMP ([3]; Staphylococcus aureus, SalmonellaTyphimurium, ref http://ac.els-cdn.com/S0022202X15369608/1-s2.0-S0022202X15369608-main.pdf?_tid=6fa51c80-693e-11e6-b18c-00000aacb362&acdnat=1471962936_8118358d97a056d7d78b5e8b4ca8d03b, https://www.sciencedirect.com/science/article/pii/S0928824401002917): hemB
